Laboratory results published in patent US20230330059A1, “3-PHENYL-2H-CHROMENE DERIVATIVE AND PHARMACEUTICAL COMPOSITION FOR PREVENTING OR TREATING ALZHEIMER'S, CONTAINING SAME” (NEUROBIONET, INC., priority 2020, published 2023).

Assays:
[1] = tested on: oligomeric Aβ proteins in cortex and hippocampus of 5xFAD mice; assay: Western blotting of oligomeric Aβ proteins in brain tissue; format: in vivo, mouse; details: 10 mg/kg, FIG. 28
Procedure: (§1) 5xFAD mice were purchased from Jackson Lab and bred in and in through mating with C57B16/SJL F1 females, based on the information provided by the supplier. Through genotyping, the mice were divided into groups of 7-9 members, including normal groups (WT) and genetically modified groups (5xFAD): 4.5-month-old 5xFAD mice (Tg) and age-matched controls (WT). To the WT or Tg groups, a vehicle or SPA1413 was orally administered at a dose of 10 mg/kg once a day for 1 month. To test whether SPA1413 has a therapeutic effect on Alzheimer’s disease, the mice in 5 groups (WT-vehicle; WT-SPA1413 5xFAD-vehicle; 5xFAD-SPA1413; and 5xFAD-donepezil) were evaluated for cognitive ability.
After the animal behavior experiments, the brain tissues of the experimental animals were recovered, the brain tissues in the cortex and hippocampus regions of one hemisphere were separated, frozen, and stored until use. The tissues were thawed on the test day and treated with a lysis solvent, followed by protein isolation and quantitation. […]
The images of the western blots analyzed for oligomeric Aβ proteins (60-70 kDa) in the cortex and hippocampus of 5xFAD-vehicle and 5xFAD-SPA1413 group animals are presented in FIG. 28, and the band intensity was analyzed and quantified using the image j program.

[2] = tested on: MHC II-positive microglia in cortex and hippocampus of 5xFAD mice; assay: MHC II-positive activated microglia in brain tissue; format: in vivo, mouse; details: 10 mg/kg, FIGS. 26 and 27
5xFAD mice [3] = assay: Passive avoidance test; format: in vivo, mouse; details: 10 mg/kg orally once a day for 1 month, FIG. 22
Procedure: (§2) The experiment was conducted with 5X-FAD transgenic mice having Alzheimer’s disease introduced therein. The 5X FAD mouse is an animal model of Alzheimer’s disease with all the human AD-linked mutations: Swedish (K670N/ […]), Florida (1716V) and London (V7171) in APP (695) and M146L in Presenilin 1
as §1
Passive avoidance test: Memory impairment was evaluated using the passive avoidance test. […] After being trained to learn that an unpleasant stimulus was given thereto in the dark room, the mice were evaluated for memory for the corresponding content as step-through latency.

[4] = tested on: HEK293 cells overexpressing the dementia gene PSEN1; assay: MTT cytotoxicity in HEK293 cells overexpressing PSEN1; format: cell-based; details: PSEN1 gene-overexpressing HEK293 cell line, 1, 5 and 10 µM, 24 hours, compared to the normal cells; FIG. 16
Procedure: (§3) HEK293 cells and the HEK293 cells overexpressing the dementia gene PSEN1 were seeded at a density of 2x10^5 cells/well into 96-well plates containing a DMEM medium and stabilized overnight, following by treating the cells with various concentrations (1, 5, and 10 µM) of the sample (SPA1413) for 24 hours. After removal of the culture medium, a 0.5 mg/ml MTT solution was added in an amount of 100 µl to each well and incubated at 37° C. for at least one hour in an incubator. The MTT was removed and 200 µl of DMSO was added to each well to dissolve the formazan. Absorbance was read at 540 nm on an ELISA reader to determine whether or the sample was toxic to the cells.

[5] = tested on: PSEN1 gene expression in PSEN1-overexpressed HEK293 cells; assay: Inhibition of dementia gene PSEN1 expression (qRT-PCR); format: cell-based; details: 0.1 and 1 µM, 24 hours, FIG. 17
Procedure: HEK293 cells and PSEN1-overexpressed HEK293 cells were seeded at a density of 1x10^6 cells/well into 6-well plates containing a DMEM medium and stabilized overnight, following by treating the cells with or without various concentrations (0.1 and 1 µM) of the sample (SPA1413) for 24 hours. Thereafter, RNA was extracted from the cells, using TRIzol reagent. Reverse transcription was performed using the GoScript™ reverse transcription system according to the manufacturer’s instructions. A qRT-PCR reaction was performed in a volume of 20 µl using the standard SYBR Green PCR kit and Roche Light® Instrument according to the standard protocol. Relative gene expression levels were calculated by the 2^-ΔΔCt method.

[6] = tested on: amyloid plaques in cortex and hippocampus of 5xFAD mice; assay: Immunohistochemical assay of amyloid plaques (6E10 antibody, Thioflavin S); format: in vivo, mouse; details: 10 mg/kg, FIGS. 24 and 25
Procedure: as §1
After the animal behavior experiments, the brain tissues of the experimental animals were recovered, sectioned, and then stained with Thioflavin S for immunostaining chemistry using the 6E10 antibody.
Immunohistochemical staining is a technique for detecting specific proteins within tissues by staining the same. […] The stained tissues were observed through a fluorescence microscope, and the images are depicted in FIG. 23.
The quantitative analysis results of the images of the tissues stained with the 6E10 antibody and Thioflavin S are presented in FIGS. 24 and 25. Five experimental animals were selected from each group and analyzed. […]

5xFAD mice [7] = assay: Y-maze test; format: in vivo, mouse; details: 10 mg/kg orally once a day for 1 month, vs 5xFAD-saline group, FIG. 21
Procedure: as §2, §1
Memory impairment was evaluated using the Y-shaped maze test. For the Y-shaped maze test, a Y-shaped arm was installed in a water tank. […] After a random number was assigned to each arm, the arm number in which the animal entered was recorded. Memory was assessed by the animal’s ability to remember the route it had taken and to try to navigate the new route.

5xFAD mice [8] = assay: Novel object recognition test; format: in vivo, mouse; details: 10 mg/kg orally once a day for 1 month, between groups, FIG. 20
Procedure: as §2, §1
For a novel object recognition test, the Ethovision XT 9 system was used to examine whether an animal was interested in a new object. […] An object newly recognizable to the animals was put into the box, and the time and frequency of staying near the object were measured to determine how interested the animals were in it. […]

HEK293 cells = assay: MTT cytotoxicity in HEK293 cells; format: cell-based; details: HEK293 cells, 1, 5 and 10 µM, 24 hours; FIG. 16
Procedure: as §3

With `Oc1ccc(C2=Cc3ccc(O)cc3OC2)cc1` [SPA1413, 3-(4-Hydroxyphenyl)-2H-chromen-7-ol] the “level of oligomeric Aβ proteins (60-70 kDa) in the cortex and hippocampus” value [1] was “significantly reduce”, the “number of activated microglia showing a positive MHC II reaction” value [2] was “significantly decrease” and the step-through latency (5xFAD mice [3]) was “significantly recovered”. For the same molecule, the “cell viability (MTT)” value [4] was “increase in cell viability”, the PSEN1 gene expression [5] was “inhibited the upregulated expression of PSEN1 gene” and the “amyloid plaques in the cortex and hippocampus” value [6] was “significantly reduced”. The total arm entries (5xFAD mice [7]) was “no significant difference”, the total distance (5xFAD mice [8]) was “no significant difference” and the velocity (5xFAD mice [8]) was “no significant difference”. For the same molecule, the “cell viability (MTT)” value (HEK293 cells) was “the same as or almost similar to the normal control group”.
